“Also recorded” adds a separate entry of the source.
Experiments:
Assay type in all cases: in vivo, human
[1] = tested on: treatment emergent mania (YMRS score); assay: Treatment-emergent mania/hypomania by Young Mania Rating Scale (YMRS) in the clinical trial
Procedure: (§1) 65 subjects with either bipolar disorder I or II, as determined by the Structured Clinical Interview for DSM-IV-Patient Version (SCID), were studied during a depressive episode, as determined by a Hamilton Depression Rating Scale (HAM-D) score of 16 or greater. […] HAM-D scores for every subject were evaluated and recorded once a week for twelve weeks following baseline assessment.
Tohen et al., (2003) Arch. Gen. Psychiatry, 60:1079-88.

[2] = tested on: depressive episode in subjects with bipolar disorder I or II (HAM-D score); assay: Double-blind clinical trial of cytidine add-on to divalproex; HAM-D scores in bipolar depression
Source text: The new methods are based on a double-blind, long-term clinical trial designed to assess the impact of cytidine on patients with bipolar disorder who were undergoing a major depressive episode.
as §1
The HAM-D scale is a 17-item scale used in the art to assess the severity of depression in patients already diagnosed with an affective disorder. Higher scores indicate more severe depression. Questions posed to subjects relate to symptoms such as depressed mood, guilty feelings, suicide, sleep disturbances, anxiety levels, and weight loss. Hamilton, (1960) J. Neurology and Neurosurgery in Psychiatry, 23:56-62.

[3] = tested on: Glu, Gln, GABA and Lac in frontal gray matter (anterior cingulate); assay: Single voxel 1H MRS study of brain metabolites in frontal gray matter; settings: for Gray Matter Glu Concentration, Mean / gray matter GABA concentration, Mean / gray matter Gln concentration, Mean / gray matter Lac concentration, Mean: cytidine group n = 19
Procedure: A companion imaging single voxel ^1H MRS study to the behavioral study described in Example 1 examined Glx and Lac changes in frontal gray matter. […] Brain MRS was performed using a 3.0 Tesla GE whole body imaging system (GE VH/i, USA). The localized MR spectra were recorded using a point-resolved spatially localized spectroscopy (PRESS) sequence on a General Electric 3T scanner, which was optimized for acquisition of ^1H MR spectra from the frontal lobe. Voxel size was 1.5×1.5×1.5 cm. The voxels were verified in scout views in T2 images obtained vertically in the Z-axis to include predominantly gray matter of the anterior cingulate for the frontal brain region. The acquisition parameters were: repetition time (TR), 2000 ms; echo time (TE), 35 ms; average=128, phase size-cycling=8, and acquisition time, 4 minutes 16 seconds.

[4] = over the 4 week period, p=0.032

subjects with treatment-emergent mania, modified criteria ([1]; YMRS less than 12 at baseline and greater than 12 subsequently, cytidine plus divalproex): no subjects; also recorded: one subject
subjects with treatment-emergent mania ([1]; YMRS less than 15 at baseline and 15 or greater anytime during the study, 12 weeks, cytidine plus divalproex): No subject
subjects with treatment-emergent hypomania ([1]; cutoff of YMRS score of 9, 12-week trial period, vs six on placebo, p=0.041): one subject
subjects with treatment emergent hypomania ([1]; cutoff of YMRS score of 10, cytidine plus divalproex): one subject
Structure (SMILES): Nc1ccn([C@@H]2O[C@H](CO)[C@@H](O)[C@H]2O)c(=O)n1 [cytidine]
affective improvement compared to placebo supplementation (FIG. 1) ([2]; HAM-D, add-on to divalproex, twelve weeks): enhanced the affective improvement
mean difference in HAM-D scores between groups ([2]; cytidine vs placebo, both add-on to divalproex, week 2 through 12, oral cytidine 1 gram/day): 2.66±0.65
increase in antidepressant efficacy compared to divalproex alone ([2]; oral cytidine added to divalproex, bipolar depression): 10%
Gray Matter Glu Concentration, Mean ([3]; Baseline): 11.38 millimolar
gray matter GABA concentration, Mean ([3]; Baseline): 0.91 millimolar
gray matter Gln concentration, Mean ([3]; Baseline): 7.38 millimolar
gray matter Lac concentration, Mean ([3]; Baseline): 1.71 millimolar
Gray Matter Glu Concentration, Mean ([3]; Week 2): 9.18 millimolar
gray matter GABA concentration, Mean ([3]; Week 2): 0.97 millimolar
gray matter Gln concentration, Mean ([3]; Week 2): 7.21 millimolar
gray matter Lac concentration, Mean ([3]; Week 2): 1.44 millimolar
Gray Matter Glu Concentration, Mean ([3]; Week 4): 8.85 millimolar
gray matter GABA concentration, Mean ([3]; Week 4): 1.03 millimolar
gray matter Gln concentration, Mean ([3]; Week 4): 6.99 millimolar
gray matter Lac concentration, Mean ([3]; Week 4): 1.42 millimolar
decrease in Glu levels ([3]; over the 4-week period, p<0.01): 22.2%
decrease in Gln levels ([3]; over the 4-week period, p=0.241): 5.3%
decrease in Lac levels [3, 4]: 17.0%
increase in GABA levels [3, 4]: 13.2%

Source: patent US20090215714A1 (priority 2004, published 2009)
